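Cells were grown in 96-well plates and exposed to each compound for 48 hours at five concentrations; endpoints were interpolated linearly between bracketing concentrations, or set to the highest concentration if not reached. GI50: concentration for 50% inhibition of growth.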 Activity calls are given as the source filed them. Cut-off read from the data, not from the text of the source: active = GI50 up to about 1.1 µM and inactive = higher.
Assays:
Assay in all cases: NCI tumour cell line growth inhibition, 48 h
SNB-75 = system: SNB-75
SN12C = system: SN12C
MCF7 = system: MCF7
SR = system: SR
HOP-62 = system: HOP-62
HCC 2998 = system: HCC 2998
UACC-62 = system: UACC-62
IGROV-1 = system: IGROV-1
NCI-H460 = system: NCI-H460
HT-29 = system: HT-29
ACHN = system: ACHN
OVCAR-8 = system: OVCAR-8
DU-145 = system: DU-145
MDA-N = system: MDA-N
SF-295 = system: SF-295
SF-539 = system: SF-539
SK-MEL-2 = system: SK-MEL-2
RPMI-8226 = system: RPMI-8226
M14 = system: M14

| Compound | GI50 (SNB-75) | GI50 (SN12C) | GI50 (MCF7) | GI50 (SR) | GI50 (HOP-62) | GI50 (HCC 2998) | GI50 (UACC-62) | GI50 (IGROV-1) | GI50 (NCI-H460) | GI50 (HT-29) | GI50 (ACHN) | GI50 (OVCAR-8) | GI50 (DU-145) | GI50 (MDA-N) | GI50 (SF-295) | GI50 (SF-539) | GI50 (SK-MEL-2) | GI50 (RPMI-8226) | GI50 (M14) |
| --- | --- | --- | --- | --- | --- | --- | --- | --- | --- | --- | --- | --- | --- | --- | --- | --- | --- | --- | --- |
| Cc1cc(C(C)(C)C)cc(CNC2CCCCC2)c1O | 12.2 µM (inactive) | 15.8 µM (inactive) | 18.1 µM (inactive) | 21.8 µM (inactive) | 20.9 µM (inactive) | 3 µM (inactive) | 16 µM (inactive) | 13.8 µM (inactive) | 14.8 µM (inactive) | 17.3 µM (inactive) | 17.1 µM (inactive) | 17.3 µM (inactive) | 21.3 µM (inactive) | 16.3 µM (inactive) | 16 µM (inactive) | 18.2 µM (inactive) | 17.7 µM (inactive) | 17.5 µM (inactive) | 15.7 µM (inactive) |
| Clc1ccc(-c2nnc(-c3cccc4ccccc34)o2)cc1Cl | > 100 µM (inactive) | > 100 µM (inactive) | > 100 µM (inactive) | 40.3 µM (inactive) | > 100 µM (inactive) | > 100 µM (inactive) | > 100 µM (inactive) | 4.93 µM (inactive) | > 100 µM (inactive) | > 100 µM (inactive) | > 100 µM (inactive) | > 100 µM (inactive) | > 100 µM (inactive) | > 100 µM (inactive) | > 100 µM (inactive) | > 100 µM (inactive) | > 100 µM (inactive) | > 100 µM (inactive) | > 100 µM (inactive) |
| CCCCCCCCOc1ccc(/C=C/C2=[N+](CCO)CCO2)cc1 | 2.67 µM (inactive) | 3.18 µM (inactive) | 4.65 µM (inactive) | 2.19 µM (inactive) | 8.63 µM (inactive) | 3.47 µM (inactive) | 4.28 µM (inactive) | 3.83 µM (inactive) | 3.07 µM (inactive) | 2.4 µM (inactive) | 3.69 µM (inactive) | 3.14 µM (inactive) | 5 µM (inactive) | 3.56 µM (inactive) | 3.96 µM (inactive) | 3.12 µM (inactive) | 2.3 µM (inactive) | 2.2 µM (inactive) | 3.8 µM (inactive) |
| CC(C)Oc1cccc(N2C(NCc3c[nH]c4ccccc34)=Nc3ccncc3S2(=O)=O)c1 | 18.3 µM (inactive) | 39.5 µM (inactive) | 18.4 µM (inactive) | 28.8 µM (inactive) | 30.9 µM (inactive) | 25.5 µM (inactive) | 11.9 µM (inactive) | 20.4 µM (inactive) | 18.5 µM (inactive) | 25.1 µM (inactive) | 20.4 µM (inactive) | 29.9 µM (inactive) | 42.8 µM (inactive) | 31.6 µM (inactive) | 18.7 µM (inactive) | 53.6 µM (inactive) | 18.6 µM (inactive) | 7.01 µM (inactive) | 21 µM (inactive) |
| CC1C(=O)OC2CC[N+]3([O-])CC=C(COC(=O)C(C)(O)C1(C)O)C23 (stereo unspecified) | > 100 µM (inactive) | > 100 µM (inactive) | > 100 µM (inactive) | 95.7 µM (inactive) | > 100 µM (inactive) | > 100 µM (inactive) | > 100 µM (inactive) | > 100 µM (inactive) | > 100 µM (inactive) | > 100 µM (inactive) | > 100 µM (inactive) | > 100 µM (inactive) | > 100 µM (inactive) | > 100 µM (inactive) | > 100 µM (inactive) | > 100 µM (inactive) | > 100 µM (inactive) | > 100 µM (inactive) | > 100 µM (inactive) |
| COc1cccc(OC)c1C1ON=C(c2ccccc2)N1C12CC3CC(CC(C3)C1)C2 (stereo unspecified) | 20.7 µM (inactive) | > 100 µM (inactive) | > 100 µM (inactive) | 5.92 µM (inactive) | 80.9 µM (inactive) | > 100 µM (inactive) | > 100 µM (inactive) | > 100 µM (inactive) | > 100 µM (inactive) | > 100 µM (inactive) | 35.3 µM (inactive) | > 100 µM (inactive) | > 100 µM (inactive) | > 100 µM (inactive) | > 100 µM (inactive) | > 100 µM (inactive) | 64 µM (inactive) | 4.41 µM (inactive) | 78 µM (inactive) |
| CCCCCCCCCCCCCCCCSS(C)(=O)=O | 14.6 µM (inactive) | 37.8 µM (inactive) | 27.6 µM (inactive) | 4.65 µM (inactive) | > 100 µM (inactive) | > 53.6 µM (inactive) | 22.4 µM (inactive) | 32.4 µM (inactive) | > 61.2 µM (inactive) | 25.2 µM (inactive) | 13.4 µM (inactive) | 29.4 µM (inactive) | > 100 µM (inactive) | 14.8 µM (inactive) | > 100 µM (inactive) | 17.9 µM (inactive) | 5.81 µM (inactive) | 5 µM (inactive) | 9.42 µM (inactive) |
| COc1cc(OC)cc(Oc2nc3ccccc3nc2C(F)(F)F)c1 | 21.9 µM (inactive) | > 100 µM (inactive) | > 100 µM (inactive) | 6.1 µM (inactive) | 19.3 µM (inactive) | > 100 µM (inactive) | > 100 µM (inactive) | 5.89 µM (inactive) | > 100 µM (inactive) | > 100 µM (inactive) | > 100 µM (inactive) | > 100 µM (inactive) | > 100 µM (inactive) | 3.66 µM (inactive) | 28.8 µM (inactive) | 52.5 µM (inactive) | 48.6 µM (inactive) | > 100 µM (inactive) | 53.8 µM (inactive) |
| NS(=O)(=O)c1ccc(NNc2c3ccccc3nc3ccccc23)cc1 | 12.9 µM (inactive) | 14 µM (inactive) | 10.9 µM (inactive) | 10.8 µM (inactive) | 12.2 µM (inactive) | 12.2 µM (inactive) | 12.3 µM (inactive) | 11.2 µM (inactive) | 12.2 µM (inactive) | 7.73 µM (inactive) | 11.4 µM (inactive) | 11.8 µM (inactive) | 14.3 µM (inactive) | 12.9 µM (inactive) | 12 µM (inactive) | 12.2 µM (inactive) | 13.5 µM (inactive) | 9.4 µM (inactive) | 11.2 µM (inactive) |
| NC(=O)c1ncn(C2C=CC(CP(=O)(O)O)C2)c1N (stereo unspecified) | > 100 µM (inactive) | > 100 µM (inactive) | > 100 µM (inactive) | > 100 µM (inactive) | > 100 µM (inactive) | > 100 µM (inactive) | > 100 µM (inactive) | > 100 µM (inactive) | > 100 µM (inactive) | > 100 µM (inactive) | > 100 µM (inactive) | > 100 µM (inactive) | > 100 µM (inactive) | > 100 µM (inactive) | > 100 µM (inactive) | > 100 µM (inactive) | > 100 µM (inactive) | > 100 µM (inactive) | > 100 µM (inactive) |
| CCOC(=O)C1OC(C2(C)OC3(OC4(C=CC3O)OC(C(C)C(=O)C(C)C(O)C(C)CC(C)c3c(Cl)cc(C)c(O)c3C(=O)O)C(C)CC4C)C(C)C2OC)CC1O (stereo unspecified) | 0.163 µM (active) | 0.207 µM (active) | 0.181 µM (active) | 0.207 µM (active) | 0.0535 µM (active) | 0.034 µM (active) | 0.27 µM (active) | 2.1 µM (inactive) | 0.0826 µM (active) | 0.34 µM (active) | 0.441 µM (active) | 0.771 µM (active) | 0.598 µM (active) | 0.55 µM (active) | 0.257 µM (active) | 0.65 µM (active) | 0.493 µM (active) | 0.54 µM (active) | 0.48 µM (active) |
| COc1cc(OC)c2c(=O)c3cccc(C)c3n(C)c2c1 | 61.5 µM (inactive) | > 100 µM (inactive) | 34 µM (inactive) | 37 µM (inactive) | > 100 µM (inactive) | > 100 µM (inactive) | 61.4 µM (inactive) | > 100 µM (inactive) | 94 µM (inactive) | 27.9 µM (inactive) | 51.3 µM (inactive) | 64.7 µM (inactive) | 57.3 µM (inactive) | 16.6 µM (inactive) | 57.7 µM (inactive) | 68.5 µM (inactive) | 76.7 µM (inactive) | 17.9 µM (inactive) | 44 µM (inactive) |
| FC(F)(F)c1ccc2c(-c3cc[nH]c3)ccnc2c1 | 14.4 µM (inactive) | 41 µM (inactive) | 30.8 µM (inactive) | 27 µM (inactive) | 35.5 µM (inactive) | > 100 µM (inactive) | > 100 µM (inactive) | 39.5 µM (inactive) | 33.7 µM (inactive) | 21.4 µM (inactive) | 31.8 µM (inactive) | 34.1 µM (inactive) | 32.5 µM (inactive) | 32.3 µM (inactive) | 30 µM (inactive) | 37.8 µM (inactive) | > 100 µM (inactive) | 34.2 µM (inactive) | 34.5 µM (inactive) |
| C=C1C(=O)OC2/C=C(/CO)C3(O)CC(O)C(C)(CC(OC(=O)/C(C)=C/C)C12)O3 (stereo unspecified) | 39.2 µM (inactive) | 15.7 µM (inactive) | 6.73 µM (inactive) | 4.57 µM (inactive) | 49.3 µM (inactive) | 10.6 µM (inactive) | 6.62 µM (inactive) | 17.2 µM (inactive) | 14.9 µM (inactive) | 8.09 µM (inactive) | 6.82 µM (inactive) | 7.66 µM (inactive) | 18.5 µM (inactive) | 10.2 µM (inactive) | 36.3 µM (inactive) | 23.9 µM (inactive) | 22.4 µM (inactive) | 2.51 µM (inactive) | 17.7 µM (inactive) |

Source: ChEMBL document CHEMBL1201862, “PubChem BioAssay data set” (2004)
